The source of these data is patent US4623656A, “Method for inhibiting monoamine oxidase-A and treating depression by administering 3-N-methyl-thioxanthen-9-one carboxamide 10,10-dioxide” (priority 1984, dated 1986).

The target of data set [1] is MAO-A. Kind of data set: Kinetic mechanism of MAO-A inhibition (single substrate varied). It is filed as biochemical, rat or human. As to the method:
For studies of the kinetic mechanism of inhibition, the above method was used, except that a single substrate (serotonin or tyramine) was varied over a 10-fold concentration range that included the Km concentration. MAO activity was determined in the absence and presence of the compound under test at each substrate concentration in duplicate assays.

The subject of the next data set is hypertensive activity. Put plainly: Hypertensive activity with orally ingested tyramine in test animals. The format is in vivo. The settings on record: oral antidepressant doses prior to orally ingested tyramine.
Another data set concerns MAO-B (brain). Kind of data set: In vivo inhibition of brain MAO-B in orally pretreated rats. More on the design: species or system rat. The settings on record: 12.5-50 mg/kg p.o., 3 hr after oral dosing. Here is the method: (§1) To determine MAO inhibition in brains and livers of rats pretreated with reversible inhibitors, it was necessary to use an assay procedure that minimized dilution of the inhibitor. Thus, high concentrations of brain tissue homogenates were incubated for very short incubation times. For brain assays, initial tissue was 3-fold diluted into each assay. Because of the very high MAO activity in liver homogenates, further dilution of tissue was necessary in order to obtain reliable data. In this case, three different homogenate concentrations were assayed, and precent inhibition was extrapolated to zero tissue dilution. Substrate concentrations were not saturating, but were chosen relative to Km values for serotonin and phenethylamine in order to give an estimate of MAO-A and B, respectively.
(§2) Brains from pretreated male Sprague-Dawley rats (sacrificed 3 hours after oral dosing), were homogenized in a buffer consisting of 0.1M potassium phosphate and 5% sucrose (pH 7.4) at a 1:1 tissue wt/buffer volume ratio, using a motorized Teflon/glass homogenizer. MAO-A and B were determined by incubating 100 μl of tissue homogenate with 50 μl of a double-label substrate mixture to give final concentrations of [^3 H] serotonin, 0.4 mM (5 Ci/mol); and [^14 C] β-phenethylamine, 20 μM (3 Ci/mol). […]

The target of data set [2] is T1, MAO-A (Homo sapiens, UniProt P21397).
T1 construct: mitochondrial extracts of rat or human brain; from tissue; host or cells: human brain, mitochondrial extract
T1 sequence (P21397 1-527): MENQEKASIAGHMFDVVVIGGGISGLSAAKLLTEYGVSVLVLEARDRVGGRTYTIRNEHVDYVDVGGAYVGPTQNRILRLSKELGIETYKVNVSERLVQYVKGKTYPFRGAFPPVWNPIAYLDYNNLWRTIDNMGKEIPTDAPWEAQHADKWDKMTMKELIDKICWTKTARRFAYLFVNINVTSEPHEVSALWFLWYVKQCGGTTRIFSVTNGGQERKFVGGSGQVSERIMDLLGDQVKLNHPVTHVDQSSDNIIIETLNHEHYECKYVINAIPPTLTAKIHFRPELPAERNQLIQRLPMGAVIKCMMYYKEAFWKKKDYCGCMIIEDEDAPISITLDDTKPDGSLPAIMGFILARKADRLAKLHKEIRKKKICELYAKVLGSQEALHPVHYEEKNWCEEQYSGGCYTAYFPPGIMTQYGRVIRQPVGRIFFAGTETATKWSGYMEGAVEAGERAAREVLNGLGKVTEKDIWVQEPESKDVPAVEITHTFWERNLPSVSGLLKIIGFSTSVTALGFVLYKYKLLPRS
Put plainly: In vitro MAO-A inhibition, double-label assay, mitochondrial extracts of human brain. The format is biochemical. As to the method:
(§3) MAO was assayed with [^3 H] serotonin (0.2 mM, 5 Ci/mol) and [^14 C] β-phenethylamine (10 μM, 3 Ci/mol) as substrates in a double-label assay (White and Glassman, J. Neurochem 29:987-97 1977).

For data set [3], the system named is tetrabenazine-induced sedation. Put plainly: Prevention of tetrabenazine-induced sedation. It is filed as in vivo, Charles River CD-1 male mice. As to the method:
Charles River CD-1 male mice (18-22 gm) were pretreated orally with various doses of Compound I or the reference standard, phenelzine, 60 min, 3 hr, or 5 hr before injection of tetrabenazine (35 mg/kg i.p.). […] Thirty minutes after injection of tetrabenazine, each mouse was scored on an arbitrary scale from one to four according to Vernier et al., ([…] Syomp. on Psychosomatic Medicine, J. H. Nodin and J. H. Moyer Eds., Lea and Febiger, Philadelphia, 1962, pp 683-90) for both depression of exploratory behaviour and presence or absence of blepharoptosis. Ratings were converted to a percent of rating received by mice receiving […] prior to tetrabenazine administration.

For the next data set, the system named is MAO-A (liver). Kind of data set: In vivo inhibition of liver MAO-A in orally pretreated rats. More on the design: species or system rat. The settings on record: for Percentage Inhibition of MAO-A, Liver: 3 hr after oral dosing, extrapolated to zero tissue dilution; for Inhibition of liver MAO-A by the time of tyramine administration: single oral dose, equipotent doses for tyramine test. Here is the method:
as §1
(§4) Brains from pretreated male Sprague-Dawley rats (sacrificed 3 hours after oral dosing), were homogenized in a buffer consisting of 0.1M potassium phosphate and 5% sucrose (pH 7.4) at a 1:1 tissue wt/buffer volume ratio, using a motorized Teflon/glass homogenizer. MAO-A and B were determined by incubating 100 μl of tissue homogenate with 50 μl of a double-label substrate mixture to give final concentrations of [^3 H] serotonin, 0.4 mM (5 Ci/mol); and [^14 C] β-phenethylamine, 20 μM (3 Ci/mol). For blank assays 100 μl portions of homogenate were pre-incubated at 37° C. with pargyline (4 mM) before substrate addition. Incubations were at 37° C. for 30 sec. Assay mixtures were then acidified and products extracted as in the above in vitro method (White and Glassman). Liver tissue was homogenized in the above phosphate-sucrose buffer at a 1:5 tissue wt/buffer volume ratio. Portions (5, 10 and 50 μ l) of each homogenate were assayed with 50 μl of the above double-label substrate mixture in a total assay volume of 150 μl 0.067M potassium phosphate, pH 7.4. Blank assays included the same amounts of homogenate pre-incubated with 4 mM pargyline for 15 min at 37° C. After addition of substrates, mixtures were incubated at 37° C. for 20 sec, acidified, and products extracted as above. Percent inhibition for each liver homogenate was obtained by plotting % inhibition vs. reciprocal of tissue concentration and extrapolating back to zero dilution.

Data set [4] deals with T2, MAO-A (Rattus norvegicus, UniProt P21396).
T2 construct: mitochondrial extracts of rat or human brain; from tissue; host or cells: rat brain, mitochondrial extract
T2 sequence (P21396 1-526): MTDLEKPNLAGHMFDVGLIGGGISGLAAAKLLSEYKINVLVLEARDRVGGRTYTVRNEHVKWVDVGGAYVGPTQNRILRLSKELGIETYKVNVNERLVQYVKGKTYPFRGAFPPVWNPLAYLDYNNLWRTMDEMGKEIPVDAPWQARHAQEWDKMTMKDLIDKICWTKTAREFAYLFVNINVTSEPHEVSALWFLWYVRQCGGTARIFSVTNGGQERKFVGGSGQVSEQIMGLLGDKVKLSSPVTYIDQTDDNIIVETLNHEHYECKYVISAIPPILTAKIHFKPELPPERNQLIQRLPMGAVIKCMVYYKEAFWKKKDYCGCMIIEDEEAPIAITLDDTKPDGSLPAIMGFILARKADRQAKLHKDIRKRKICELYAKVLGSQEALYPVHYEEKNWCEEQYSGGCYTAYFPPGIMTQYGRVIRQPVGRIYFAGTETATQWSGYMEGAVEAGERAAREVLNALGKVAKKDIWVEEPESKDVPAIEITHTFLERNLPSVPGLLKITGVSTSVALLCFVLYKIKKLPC
Put plainly: In vitro MAO-A inhibition, double-label assay, mitochondrial extracts of rat brain. It is filed as biochemical. As to the method:
as §3

A further data set has as its system MAO-B (liver). Put plainly: In vivo inhibition of liver MAO-B in orally pretreated rats. More on the design: species or system rat. The settings on record: 12.5-50 mg/kg p.o., 3 hr after oral dosing. Here is the method:
as §1, §2

Another data set has as its system MAO-A (brain). Kind of data set: In vivo inhibition of brain MAO-A in orally pretreated rats. Further details: species or system rat. The settings on record: for Percentage Inhibition of MAO-A, Brain: 3 hr after oral dosing; for Inhibition of brain MAO-A by the time of tyramine administration: single oral dose, equipotent doses for tyramine test. Here is the method: as §1, §4

For another data set, the system named is MAO. Put plainly: Time course of in vivo MAO inhibition after oral dosing (other experiments, tissue not stated). Further details: species or system rat. The settings on record: oral dose of 50 mg/Kg. As to the method:
as §1
as §4, with “([…]),” for “(sacrificed 3 hours after oral dosing),”, “Percent inhibition for each liver homogenate was obtained by plotting % inhibition vs. reciprocal of tissue concentration and extrapolating back to zero dilution.” left out

Where [5] appears, read: read-out: I50, inhibition of MAO-A.

Where only a bound is given, the exact number is not on record here.

What is called Ki is a dissociation constant, usually derived from enzyme kinetics or from competition with a known ligand. Low readings indicate tighter binding, high ones weaker binding. For orientation: ED50 means the midpoint of the dose-response relation. High values mean a need for a large dose, low ones an effect at a small dose. `CNC(=O)c1ccc2c(c1)S(=O)(=O)c1ccccc1C2=O` [Compound I, 3-N-methylcarbamoylthioxanthen-9-one 10,10-dioxide] registered an inhibition constant Ki at MAO-A [1] (serotonin as substrate, mitochondrial extracts of rat or human brain) of 16 nM. In addition, the Mechanism of inhibition entry with MAO-A [1] (vs. the substrates, serotonin or tyramine) is “competitive”. Besides, the “Hypertensive activity (in words)” value in the data set on hypertensive activity is “No significant hypertensive activity”. In the data set on MAO-B (brain), the “Inhibition of MAO-B, brain” value is reported as “no significant inhibition of MAO-B in either tissue”. The “Inhibition of MAO-A (in words)” value at MAO-A [2] and on MAO-A [4] was “potent selective inhibition of MAO-A” each time. The IC50 on MAO-A [2] (setting [5]) and on MAO-A [4] (setting [5]) was 50 nM in each case. The compound further returned an ED50 in data set [3] (Mus musculus, 1.5 h, oral, 90 minutes, tetrabenazine 35 mg/kg i.p.) of 49 ± 10 mg/kg. Further, in [3] (oral, 90 minutes, tetrabenazine 35 mg/kg i.p.), the “Prevention of tetrabenazine-induced sedation (in words)” value is recorded as “dose-dependent prevention of tetrabenazine-induced sedation”. The “ED50 at 3 hr after treatment (in words)” value in [3] (oral, 3 hr after treatment, tetrabenazine 35 mg/kg i.p.) is reported as “essentially the same as those found at 90 min”. Also, the median effective dose (ED50) at 5 hr after treatment (in words) in data set [3] (oral, 5 hr after treatment, tetrabenazine 35 mg/kg i.p.) is reported as “essentially the same as those found at 90 min”. In addition, the “Percentage Inhibition of MAO-A, Liver” value with MAO-A (liver) (12.5 mg/kg p.o.) is 79 ± 5%; with MAO-A (liver) (25 mg/kg p.o.), 94 ± 4%; in the data set on MAO-A (liver) (50 mg/kg p.o.) it was 92 ± 4%. Besides, the “Inhibition of liver MAO-A by the time of tyramine administration” value in the data set with MAO-A (liver) is no less than 90%. In the data set with MAO-B (liver), the “Inhibition of MAO-B, liver” value is “no significant inhibition of MAO-B in either tissue”. The “Percentage Inhibition of MAO-A, Brain” value in the data set on MAO-A (brain) (12.5 mg/kg p.o.) was 37 ± 16%; with MAO-A (brain) (25 mg/kg p.o.), 49 ± 10%; with MAO-A (brain) (50 mg/kg p.o.), 78 ± 2%. In addition, in the data set with MAO-A (brain), the “Inhibition of brain MAO-A by the time of tyramine administration” value was “approximately 80%”. For the same compound, in the data set with MAO, the “Reversibility of the in vivo inhibition” value is reported as “indicating reversibility of the in vivo inhibition”. For the same compound, the “Time of maximum inhibition” value in the data set with MAO was in the range of 3 to 7 h. For the same compound, the “Inhibition at 24 hours after dosing” value in the data set with MAO (24 hours after dosing) is listed as “negligible”.

Turning to `NNCCc1ccccc1` [phenelzine, reference compound], the “Inhibition of liver MAO-A by the time of tyramine administration” value in the data set with MAO-A (liver) is given as no less than 90%. For the same compound, the “Inhibition of brain MAO-A by the time of tyramine administration” value in the data set with MAO-A (brain) was “approximately 80%”.

Consider `COc1cc2c(cc1OC)C1CC(=O)C(CC(C)C)CN1CC2` (stereo not drawn) [tetrabenazine, reference compound], for which, in [3] (tetrabenazine 35 mg/kg i.p. (challenge agent)), the “Treated mice remaining motionless with marked blepharoptosis” value is given as 90-100%.
